Values of other authors in paper PMC10322880 (Communications Biology, 2023).

Tested on: SARS-CoV-2
Conditions: phase 2/3 clinical trial

Cn1cnc(Cn2c(=O)[nH]/c(=N\c3cc4cn(C)nc4cc3Cl)n(Cc3cc(F)c(F)cc3F)c2=O)n1 [ensitrelvir]
SARS-CoV-2 clearance: rapid SARS-CoV-2 clearance
tolerability: well tolerated
